Patent publication US20090298783A1, “Cosmetic Compositions” (Cognis IPanagement GmbH, priority 2006, published 2009)
Marks after values point to notes of the source that are not given here.

Experiments:
[1] = tested on: GMCSF; assay: Nickel-induced GMCSF release from human keratinocytes (ELISA); assay type: cell-based; details: 48 hours
Method: (§1) The soothing potential of silybin, piperin, rhapontin, nortrachelogenine and arctiin was evaluated on primary culture of human keratinocytes treated by a nickel salt (nickel chloride, Sigma) according to the method of Ermolli M, et al. “Nickel, cobalt and chromium-induced cytotoxicity and intracellular accumulation in human HaCaT keratinocytes” [Toxicology. 2001 Feb. 21; 159(1-2): 23-31] and compared to hydrocortisone (HOC; Sigma, France).
(§2) After a growth phase in medium enriched by fetal calf serum, the cells were treated with the nickel salt and with the test compounds. After 48 hours at 37° C., CO2=5%, the level of released GMCSF (ELISA method) and cell viability (MTT test) were determined.

[2] = tested on: primary culture of human keratinocytes; assay: Cell viability (MTT test) of nickel-treated human keratinocytes; details: nickel salt alone at 0.75 mM, 48 hours
Method: as §1, §2

[3] = first set, Ni 0.75 mM (=100) + test compound at 0.001%, mean +/- SEM on 3 separate assays

COc1ccc(/C=C/c2cc(O)cc(O[C@@H]3O[C@H](CO)[C@@H](O)[C@H](O)[C@H]3O)c2)cc1O [rhapontin, 3,3′,5-Trihydroxy-4′-methoxystilbene 3-b-D-glucopyranoside]
GMCSF released ([1]; second set, Ni 0.75 mM (=100) + test compound at 0.01%, mean on 1 assay in triplicate): 72 percentage referring to control
GMCSF released ([1]; second set, Ni 0.75 mM (=100) + test compound at 0.01%, mean on 1 assay in triplicate, listed as Rhapontin): lowered

C[C@]12CCC(=O)C=C1CC[C@@H]1[C@@H]2[C@@H](O)C[C@@]2(C)[C@H]1CC[C@]2(O)C(=O)CO [HOC, hydrocortisone, reference compound]
GMCSF released ([1]; second set, Ni 0.75 mM (=100) + test compound at 1 μM, mean on 1 assay in triplicate): 52 percentage referring to control

COc1cc([C@H]2Oc3cc([C@H]4Oc5cc(O)cc(O)c5C(=O)[C@@H]4O)ccc3O[C@@H]2CO)ccc1O [silybin]
GMCSF released ([1]; first set, Ni 0.75 mM (=100) + test compound at 0.0003%, mean +/- SEM on 3 separate assays): 88 +/− 19 percentage referring to control
GMCSF released [1, 3]: 48 +/− 12* percentage referring to control
GMCSF released ([1]; first set, Ni 0.75 mM (=100) + test compound at 0.001%, mean +/- SEM on 3 separate assays, listed as Silybin): significantly lowered

[Cl][Ni][Cl] [Nickel (Ni), nickel chloride]
MTT ([2]; first set, mean +/- SEM on 3 separate assays): 68 +/− 9 percentage referring to control
MTT ([2]; first set, mean +/- SEM on 3 separate assays, listed as nickel): distinctly decreased cell viability
MTT ([2]; second set, mean on 1 assay in triplicate): 33 percentage referring to control

O=C(/C=C/C=C/c1ccc2c(c1)OCO2)N1CCCCC1 [piperine, (E,E)-1-[5-(1,3-benzodioxol-5-yl)-1-oxo-2,4-pentadienyl]piperidine]
GMCSF released [1, 3]: 79 +/− 14 percentage referring to control
GMCSF released ([1]; first set, Ni 0.75 mM (=100) + test compound at 0.003%, mean +/- SEM on 3 separate assays): 29 +/− 13* percentage referring to control
GMCSF released ([1]; first set, Ni 0.75 mM (=100) + test compound at 0.003%, mean +/- SEM on 3 separate assays, listed as Piperine): significantly lowered
